Consider 13 compounds from PMC10298979, “Assessments of Alpha-Amylase Inhibitory Potential of Tagetes Flavonoids through In Vitro, Molecular Docking, and Molecular Dynamics Simulation Studies” (International Journal of Molecular Sciences, 2023).

The conditions of data set [1]: no reference given; cited from earlier work.
For the next data set, the target named is alpha-amylase. Description: in vitro alpha-amylase inhibition (AAI) assay, Ultra-Amylase EnzChek Assay Kit. The format is biochemical. From the text: The AAI capacity of T. minuta flavonoids was estimated using an Ultra-Amylase®Enz-Chek Assay Kit in line with a formerly reported method.
On the set-up of data set [2]: method as in PMID 24599122, PMID 16168446. The note with it: cited from earlier work; for IC50 for DPPH: radical scavenging.
Data set [3] has as its system PE (phenylephrine)-precontracted thoracic aortic rings. On the set-up: method as in PMID 23763258. Particulars: PE-precontracted thoracic aortic rings in rats; cited from earlier work.
Details of data set [4]: method as in PMID 24599122, PMID 16168446. Particulars: cited from earlier work.

As to `C[C@H]1O[C@H](O[C@H]2[C@H](O)[C@@H](O)[C@@H](O[C@H]3[C@H](O)[C@@H](O)C(O)O[C@@H]3CO)O[C@@H]2CO)[C@H](O)[C@@H](O)[C@@H]1N[C@H]1C=C(CO)[C@@H](O)[C@H](O)[C@H]1O` (stereo partly shown) [Acarbose], in data set [1], the “oral dose absorbed into the bloodstream” value is reported as 2% and the “oral dose eliminated through fecal excretion” value was “approximately 51%”.

On to `O=C(C=Cc1ccc(O)c(O)c1)OCC1OC(Oc2c(O)cc3oc(-c4ccc(O)c(O)c4)c(O)c(=O)c3c2O)C(O)C(O)C1O` [Compound 1, quercetagetin-6-O-(6-O-caffeoyl-β-D-glucopyranoside)], for which the 50% inhibitory concentration (IC50) at alpha-amylase came to 10.1 µM. The DPPH scavenging in data set [2] was 89.1%.

As for `O=c1c(O)c(-c2ccc(O)c(O)c2)oc2cc(OC3OC(CO)C(O)C(O)C3O)c(O)c(O)c12` [Compound 2, quercetagetin-7-O-β-D-glucopyranoside], the concentration for half-maximal inhibition (IC50) at alpha-amylase worked out at 7.8 µM. For the same compound, the vasorelaxation result in data set [3] is given as “vasorelaxation potential”. Moreover, the “IC50 for DPPH” value in data set [2] was 3.92 µg/mL. Moreover, the “%inhibition for superoxide anion” value in data set [4] was 82.85%.

With `O=c1c(O)c(-c2ccc(O)c(O)c2)oc2cc(O)c(OC3OC(CO)C(O)C(O)C3O)c(O)c12` [Compound 3, quercetagetin-6-O-β-D-glucopyranoside], half-maximal inhibition against alpha-amylase (IC50) was put at 8.9 µM. This counts as single-digit micromolar.

For `CCCCCC(=O)OCC1OC(Oc2c(O)cc3oc(-c4ccc(O)c(O)c4)c(O)c(=O)c3c2O)C(O)C(O)C1O` (stereo not shown) [Compound 4, minutaside A], half-maximal inhibition at alpha-amylase (IC50) required 9.2 µM.

Turning to `COc1c(OC2OC(CO)C(O)C(O)C2O)cc2oc(-c3ccc(O)c(O)c3)c(O)c(=O)c2c1O` [Compound 5, patuletin-7-O-β-D-glucopyranoside], at alpha-amylase, inhibition was half-maximal at 8.1 µM (IC50). The “IC50 for DPPH” value in data set [2] was 12.1 µg/mL.

For `COc1cc2oc(-c3ccc(O)c(O)c3)c(O)c(=O)c2c(O)c1O[C@@H]1O[C@H](CO)[C@@H](O)[C@H](O)[C@H]1O` [Compound 6, quercetagetin-7-methoxy-6-O-β-D-glucopyranoside], the IC50 on alpha-amylase amounted to 9.7 µM.

As for `COc1c(-c2ccc(O)c(O)c2)oc2c(O)c(O)c(O[C@@H]3O[C@H](CO)[C@@H](O)[C@H](O)[C@H]3O)c(O)c2c1=O` [Compound 7, tagenol B], at alpha-amylase, half-maximal inhibition (IC50) required 10.8 µM. This IC50 and that of the compound before are within 1.5-fold of each other.

With `COc1c(O)cc2oc(-c3ccc(O)c(O)c3)c(O)c(=O)c2c1O` [Compound 8, patuletin], the 50% inhibitory concentration (IC50) on alpha-amylase is 13.6 µM.

As for `COc1cc2oc(-c3ccc(O)c(O)c3)c(OC)c(=O)c2c(O)c1O[C@@H]1O[C@H](CO)[C@@H](O)[C@H](O)[C@H]1O` [Compound 9, quercetagetin-3,7-dimethoxy-6-O-β-D-glucopyranoside], the IC50 against alpha-amylase stood at 12.7 µM. This IC50 and that of the compound before are within 1.5-fold of each other.

Turning to `COc1c(-c2ccc(O)c(O)c2)oc2cc(O)cc(O)c2c1=O` [Compound 10, quercetin-3-methyl ether], on alpha-amylase, the 50% inhibitory concentration (IC50) was found to be 26.9 µM.

As for `COc1c(O)cc2oc(-c3ccc(O)c(O)c3)c(OC)c(=O)c2c1O` [Compound 11, quercetin-3,6-dimethyl ether], the IC50 against alpha-amylase turned out to be 21.7 µM. The IC50 values of the last two compounds are within 1.5-fold of each other.

As to `COc1ccc(-c2oc3c(O)c(O)c(OC)c(O)c3c(=O)c2OC)cc1O` [Compound 12, tagenol A], the concentration for half-maximal inhibition (IC50) at alpha-amylase stood at 14.9 µM.
